Values of other authors in patent US4239780A, “Phospholipase A2 inhibition” (The Upjohn Company, priority 1979, dated 1980).

Tested on: phospholipase A2 from venom of Russel Viper
Settings: enzyme from Russel Viper venom; cited from earlier work

## COc1ccc2c(c1)c(CC(=O)O)c(C)n2C(=O)c1ccc(Cl)cc1 [indomethacin, Indomethacin]
  inhibition of phospholipase A2: inactive
